# Entries after “also recorded” stand apart in the source; their conditions may differ. Counter-ions that a name gives are not always drawn. Like-named read-outs stand apart in the source and are kept apart here.
# Key:
# [1] = system: amphotropic murine leukemia virus (A-MLV); assay: Specificity control: infection by virus pseudotyped with A-MLV envelope glycoproteins; format: cell-based; conditions: for specificity: inhibition of A-MLV entry: either cell type
# Procedure: (§1) The calorimetric cell (approximately 1.4 mL), containing gp120 from the YU2 strain dissolved in PBS (Roche Diagnostics GmbH, Mannheim, Germany), pH 7.4 with 2% DMSO, was titrated with the different inhibitors dissolved in the same buffer.
# (§2) The recombinant viruses employed were pseudotyped with HIV-1 envelope glycoproteins derived from either an X4, laboratory-adapted HXBc2 isolate, or the R5, primary YU2 isolate. As a control for specificity, the viruses were pseudotyped with the envelope glycoproteins of the amphotropic murine leukemia virus (A-MLV), an unrelated retrovirus.
# (§3) Compounds were dissolved in dimethyl sulfoxide (DMSO), and stored at 10 mM concentrations at −20° C. The compounds were diluted in Dulbecco Modified Eagle Medium (DMEM, Invitrogen) to create 1 mM solutions before use. Soluble CD4 (sCD4) was purchased from ImmunoDiagnostics (Woburn, Mass.). Human 293T embryonic kidney and canine Cf2Th thymocytes (ATCC) were grown at 37° C. and 5% CO2 in DMEM (Invitrogen) containing 10% fetal bovine serum (Sigma) and 100 μg/mL of penicillin-streptomycin (Meditech, Inc.). Cf2Th cells stably expressing human CD4 and either CCR5 or CXCR4 (Babcock et al., 2001, Mirzabekov et al., 1999) were grown in medium supplemented with 0.4 mg/mL of G418 (Invitrogen) and 0.20 mg/mL of hygromycin B (Roche Diagnostics). Using the Effectene transfection reagent (Qiagen), 293T human embryonic kidney cells were cotransfected with plasmids expressing the pCMVΔP1ΔenvpA HIV-1 Gag-Pol packaging construct, the wild-type or mutant HIV-1YU2 envelope glycoproteins or the envelope glycoproteins of the control amphotropic murine leukemia virus (A-MLV), and the firefly luciferase-expressing vector at a DNA ratio of 1:1:3 μg. For the production of viruses pseudotyped with the A-MLV glycoprotein, a rev-expressing plasmid was added. The single-round, replication-defective viruses in the supernatants were harvested 24-30 hours after transfection, filtered (0.45 μm), aliquoted, and frozen at −80° C. until further use. The reverse transcriptase (RT) activities of all viruses were measured as described previously (Rho et al., 1981).
# (§4) Cf2Th/CD4-CCR5 or Cf2Th/CD4-CXCR4 target cells were seeded at a density of 6×10^3 cells/well in 96-well luminometer-compatible tissue culture plates (Perkin Elmer) 24 h before infection. On the day of infection, (1 to 100 μM) was added to recombinant viruses (10,000 reverse transcriptase units) in a final volume of 50 μL and incubated at 37° C. for 30 minutes. The medium was removed from the target cells, which were then incubated with the virus-drug mixture for 2-4 hours at 37° C. At the end of this time point, complete medium was added to a final volume of 150 μL and incubated for 48 hours at 37° C. The medium was removed from each well, and the cells were lysed with 30 μL of passive lysis buffer (Promega) by three freeze-thaw cycles.
# [2] = biological target: T1, gp120 from the YU2 strain (Human immunodeficiency virus type 1 group M subtype B, UniProt P35961); assay: biochemical; format: binding, HIV-1
# Procedure: as §1
# Analogue binding to full-length gp120 from the YU2 strain was next characterized by isothermal titration calorimetry to assess the enthalpic and entropic contributions to binding affinity (FIG. 7 and FIG. 3c). […] Schön, A. et al. Biochemistry 45, 10973-80 (2006). […] Schön, A. et al. Chem Biol Drug Des: 77, 161-165 (2011).
# Isothermal titration calorimetric experiments were performed using a high-precision VP-ITC titration calorimetric system from MicroCal LLC. (Northampton, Mass.). The calorimetric cell (˜1.4 mL), containing gp120 at a concentration of about 2 μM dissolved in PBS, pH 7.4 (Roche Diagnostics GmbH), with 2% DMSO, was titrated with the different compounds dissolved in the same buffer at concentrations of 80-130 μM. The compound solution was added in aliquots of 10 μL at pre-set intervals. All solutions were degassed to avoid any formation of bubbles in the calorimeter during stirring. All experiments were performed at 25° C. The heat evolved upon injection of compound was obtained from the integral of the calorimetric signal. The heat associated with the binding reaction was obtained by subtracting the heat of dilution from the heat of reaction. The individual binding heats were plotted against the molar ratio, and the values for the enthalpy change (ΔH) and association constant, Ka (Kd=1/Ka), were obtained by nonlinear regression of the data.
# recombinant HIV-1YU2 = assay: Activation of viral infectivity in CD4-negative Cf2Th-CCR5 cells; format: cell-based; conditions: for enhancement of viral infectivity in CD4 deficient cells: YU2, CD4-negative, CCR5-expressing cells
# [3] = system: mono-tropic (HXBc2) and dual tropic (89.6 and KB9) viruses; assay: Inhibition of entry on cells co-expressing CD4 and CXCR4; format: cell-based, HIV-1; conditions: Human immunodeficiency virus 1, read-out: IC50 of entry inhibition
# Procedure: as §2
# Compounds were dissolved in dimethyl sulfoxide (DMSO), and stored at 10 mM concentrations at −20° C. The compounds were diluted in Dulbecco Modified Eagle Medium (DMEM, Invitrogen) to create 1 mM solutions before use. Soluble CD4 (sCD4) was purchased from ImmunoDiagnostics (Woburn, Mass.). Human 293T embryonic kidney and canine Cf2Th thymocytes (ATCC) were grown at 37° C. and 5% CO2 in DMEM (Invitrogen) containing 10% fetal bovine serum (Sigma) and 100 μg/mL of penicillin-streptomycin (Meditech, Inc.). Cf2Th cells stably expressing human CD4 and either CCR5 or CXCR4 (Babcock et al., 2001, Mirzabekov et al., 1999) were grown in medium supplemented with 0.4 mg/mL of G418 (Invitrogen) and 0.20 mg/mL of hygromycin B (Roche Diagnostics). […] The reverse transcriptase (RT) activities of all viruses were measured as described previously (Rho et al., 1981). […]
# [4] = system: clade C Env-pseudoviruses; assay: Neutralization of Env-pseudoviruses in TZM-bl cells, clade C; format: cell-based, HIV-1; conditions: for neutralization breadth: clade C
# Procedure: (§5) HIV-1 Env-pseudoviruses were prepared by transfecting 293T cells with 10 μg of rev/env expression plasmid and 30 μg of an env-deficient HIV-1 backbone vector (pSG3Δenv), using Fugene 6 transfection reagents (Invitrogen). Pseudovirus-containing culture supernatants were harvested two days after transfection, filtered (0.45 μm), and stored at −80° C. or in the vapor phase of liquid nitrogen. Neutralization was measured using HIV-1 Env-pseudoviruses to infect TZM-b1 cells as described previously (Li et al., 2005; Li et al., 2006; Seaman et al., 2010; Wu et al., 2009) with minor modifications. Briefly, the test reagent (DMJ-I-228, NBD556, or CD4-Ig) were diluted in complete media containing 10% DMSO. Then 40 μL of virus was added to 10 μL of serial diluted test reagent in duplicate wells of a 96-well flat bottom culture plate, and the virus-reagent mix was incubated for 30 min at 37° C. To keep assay conditions constant, sham media containing 10% DMSO was used in place of test reagent in specified control wells. The virus input was set at a multiplicity of infection of approximately 0.01-0.1, which generally results in 100,000 to 400,000 relative light units (RLU) in a luciferase assay (Promega, Madison, Wis.). The test reagent concentrations were defined at the point of incubation with virus supernatant. Neutralization curves were fit by nonlinear regression using a 5-parameter hill slope equation as previously described (Seaman et al., 2010).
# (§6) To assess further the HIV-1 neutralization breadth and potency, we assayed 1, (+)-3, (+)-4 against 42 diverse strains of clades B and C Env-pseudoviruses (data not shown).
# HIV-1YU2 virus = assay: Single-round infection of Cf2Th-CD4/CCR5 cells by luciferase-expressing HIV-1YU2 virus; format: cell-based; conditions: for inhibition of entry of YU2 and ADA viruses: CD4- and CCR5-expressing cells
# Procedure: as §1, §3, §4
# [5] = system: clade B Env-pseudoviruses; assay: Neutralization of Env-pseudoviruses in TZM-bl cells, clade B; format: cell-based, HIV-1; conditions: for neutralization breadth: clade B
# Procedure: as §5, §6
# YU2 S375W virus = assay: Viral inhibition with the cavity filling YU2 mutant S375W; format: cell-based, HIV-1
# Procedure: Then, the capacity of DMJ-I-228 (10) to bind within the Phe43 cavity was assessed by measuring viral inhibition in the context of the cavity filling YU2 mutant S375W.
# [6] = biological target: T1, gp120 from the YU2 strain; design: species or system HIV-1; conditions: from temperature dependence of the binding enthalpy
# gp120 = gp120 (Human immunodeficiency virus type 1 group M subtype B, UniProt P35961); conditions: previously reported, cited from earlier work
# [7] = Human immunodeficiency virus 1, TZM-bl, read-out: IC50 GMT
structure (smiles),measurement,setting,value
"N[C@@H]1Cc2ccccc2[C@H]1NC(=O)C(=O)Nc1ccc(Cl)c(F)c1 [AWS-I-45, N^1-((1R,2R)-2-amino-2,3-dihydro-1H-inden-1-yl)-N^2-(4-chloro-3-fluorophenyl)oxalamide]",specificity: inhibition of A-MLV entry,[1],non-specificity
same,binding affinity compared to TS-II-224 (2),[2]; ITC,three-fold loss in affinity
"O=C(Nc1ccc(Cl)c(F)c1)C(=O)N[C@@H]1c2ccccc2C[C@@H]1O [TK-II-103, N^1-(4-chloro-3-fluorophenyl)-N^2-((1R,2S)-2-hydroxy-2,3-dihydro-1H-inden-1-yl)oxalamide]",specificity: inhibition of A-MLV entry,[1],non-specificity
N=C(N)N[C@H]1Cc2ccccc2[C@@H]1NC(=O)C(=O)Nc1ccc(Cl)c(F)c1 [DMJ-I-228],enhancement of viral infectivity in CD4 deficient cells,recombinant HIV-1YU2,did not enhance viral infectivity; also recorded: did not enhance entry
same,specificity: inhibition of A-MLV entry,[1],did not inhibit A-MLV entry
same,IC50,[3],6 to 30 µM
same,binding affinity compared to TS-II-224 (2),[2]; ITC,comparable affinity
same,enthalpy change ΔH,"[2]; ITC, 25° C.",-14.9 kcal/mol
same,entropy change ΔS,"[2]; ITC, 25° C.",−20 cal/(K×mol)
same,entropy contribution −TΔS,"[2]; ITC, 25° C.",-5.9 kcal/mol
same,Kd,"[2]; ITC, 25° C., read-out: Kd (binding affinity)",0.25 µM
same,neutralization breadth,[4],100%
same,inhibition of entry of YU2 and ADA viruses,HIV-1YU2 virus,inhibited the entry
same,neutralization breadth,[5],100%
same,sensitivity of YU2 S375W virus to compound,YU2 S375W virus,completely resistant
"N=C(N)NC[C@H]1Cc2ccccc2[C@@H]1NC(=O)C(=O)Nc1ccc(Cl)c(F)c1 [(+)-4, (+)-N^1-(4-Chloro-3-fluorophenyl)-N^2-(trans-2-(guanidinomethyl)indan-1-yl)oxalamide formate salt]",Kd,"[2]; ITC, full-length gp120, read-out: Kd",0.11 µM
same,IC50,[4]; [7],14 µM
same,neutralization breadth,[4],59%
same,IC50,"HIV-1YU2 virus; Human immunodeficiency virus 1, CCR5, read-out: IC50 of viral entry, YU2",3.1 ± 0.6 µM
same,IC50,[5]; [7],1.7 µM
same,neutralization breadth,[5],100%
same,improvement over (+)-3 based on IC50 titers,[5]; clade B viruses,60%
same,improvement over (+)-3 based on IC80 titers,[5]; clade B viruses,1.5 fold
N[C@H]1Cc2ccccc2[C@@H]1NC(=O)C(=O)Nc1ccc(Cl)c(F)c1 [AWS-I-50],specificity: inhibition of A-MLV entry,[1],non-specificity
same,binding affinity compared to TS-II-224 (2),[2]; ITC,three-fold loss in affinity
same,entropy contribution −TΔS,"[2]; ITC, 25° C.",-7.6 kcal/mol
N=C(N)N[C@@H]1Cc2ccccc2[C@H]1NC(=O)C(=O)Nc1ccc(Cl)c(F)c1 [AWS-I-169],enhancement of viral infectivity in CD4 deficient cells,recombinant HIV-1YU2,did not enhance viral infectivity; also recorded: did not enhance entry
same,specificity: inhibition of A-MLV entry,[1],did not inhibit A-MLV entry
same,IC50,[3],6 to 30 µM
same,binding affinity compared to TS-II-224 (2),[2]; ITC,comparable affinity
same,enthalpy change ΔH,"[2]; ITC, 25° C.",-19.4 kcal/mol
same,entropy contribution −TΔS,"[2]; ITC, 25° C.",-10.4 kcal/mol
same,neutralization breadth,[4],100%
same,inhibition of entry of YU2 and ADA viruses,HIV-1YU2 virus,inhibited the entry
same,neutralization breadth,[5],100%
same,change in heat capacity,[6],−817±15 cal/(K×mol)
same,sensitivity of YU2 S375W virus to compound,YU2 S375W virus,completely resistant
O=C(Nc1ccc(Cl)c(F)c1)C(=O)N[C@H]1c2ccccc2C[C@H]1O [TK-II-52],specificity: inhibition of A-MLV entry,[1],non-specificity
CC1(C)CC(NC(=O)C(=O)Nc2ccc(Cl)cc2)CC(C)(C)N1 [NBD-556],enthalpy change,gp120; 25° C.,-24.5 kcal/mol
same,"unfavorable entropy change −TΔS, contribution to Gibbs energy",gp120,17.1 kcal/mol
CNC(=O)C(NC(=O)C(=O)Nc1ccc(Cl)c(F)c1)c1ccccc1 (centres unmarked),Enhancement of viral infection of CD4− cells,recombinant HIV-1YU2; Example 24 table,0.00
same,IC50,"[1]; Murine leukemia virus, read-out: IC50 of A-MLV on CD4^+ cells",91.7 µM
same,ΔG,[2]; Example 24 table,-7.6 kcal/mol
same,ΔH,[2]; Example 24 table,-9.2 kcal/mol
same,−TΔS,[2]; Example 24 table,+1.6 kcal/mol
same,Kd,"[2]; Example 24 table, read-out: Kd",2.5 µM
same,IC50,"HIV-1YU2 virus; Human immunodeficiency virus 1, Cf2Th-CD4/CCR5, read-out: IC50 of HIV-1 on CD4^+ cells",70 µM

# — patent US9403763B2, “CD4-mimetic inhibitors of HIV-1 entry and methods of use thereof” (priority 2011, dated 2016)
